For data set [1], the system named is Rattus norvegicus. Description: Antiinflammatory activity in rat assessed as inhibition of carrageenin-induced foot edema at 33 mg/kg, po. The class given is functional, organism-based. Further details: dose 33 mg/kg.
The nature of data set [2]: Ionization constant, pKa of the compound. The class given is physicochemical.
For data set [3], the system named is Rattus norvegicus. Description: Antiinflammatory activity in rat assessed as inhibition of carrageenin-induced foot edema at 100 mg/kg, po. The class given is functional. In general terms: In the carrageenan paw model, swelling and tenderness develop within hours.

What is called pKa is the pH at which an ionisable group is half protonated. Broadly, the inhibition in vivo is the drop in the measured response relative to a control, in per cent.

The source made the active and inactive calls. The rule behind the calls is not given here.

Consider `O=C(Nc1ccccc1C(F)(F)F)C1CN(c2ccccc2)C(=O)C1=O` (stereo unspecified), for which the inhibition result in the data set with Rattus norvegicus [1] was “Active”. For the same compound, the pKa in data set [2] stood at 5.87.

`COc1ccccc1NC(=O)C1CN(C)C(=O)C1=O` (stereo unspecified): in the data set with Rattus norvegicus [1], the inhibition entry was “Active”. The pKa in data set [2] came out at 6.08.

Regarding `CN1CC(C(=O)Nc2ccccc2)C(=O)C1=O` (stereo unspecified), the inhibition result in the data set with Rattus norvegicus [1] is “Active”. The pKa in data set [2] is 5.86.

Turning to `O=C(Nc1ccccc1Cl)C1CN(c2ccccc2)C(=O)C1=O` (stereo unspecified), in the data set with Rattus norvegicus [1], the inhibition entry is “Active”.

For `Cc1ccc(NC(=O)C2CN(C)C(=O)C2=O)cc1` (stereo unspecified), in the data set on Rattus norvegicus [1], the inhibition entry is “Active”. Further, the pKa in data set [2] was 5.79.

Consider `COc1ccccc1NC(=O)C1CN(c2ccccc2)C(=O)C1=O` (stereo unspecified), for which the inhibition result in the data set with Rattus norvegicus [1] was “Active”. In data set [2], the pKa stood at 6.19.

In the case of `COc1ccc(NC(=O)C2CN(C)C(=O)C2=O)cc1` (stereo unspecified), the inhibition entry with Rattus norvegicus [1] is “Active”. Besides, the pKa in data set [2] is 5.84.

On to `O=C(Nc1ccc(Cl)cc1)C1CN(c2ccccc2)C(=O)C1=O` (stereo unspecified), for which the inhibition result in the data set on Rattus norvegicus [1] is “Active”.

In the case of `CCOC(=O)c1ccccc1NC(=O)C1CN(C)C(=O)C1=O` (stereo unspecified), the inhibition entry in the data set on Rattus norvegicus [1] is “Active”. The pKa in data set [2] was 6.49.

`CN1CC(C(=O)Nc2ccc(F)cc2)C(=O)C1=O` (stereo unspecified): the inhibition result in the data set with Rattus norvegicus [1] was “Active”. In data set [2], the pKa was 5.55.

Consider `CN1CC(C(=O)Nc2ccc(Cl)cc2)C(=O)C1=O` (stereo unspecified), for which the inhibition result with Rattus norvegicus [1] was “Active”. The pKa in data set [2] was 5.51.

Turning to `O=C(Nc1ccccc1)C1CN(c2ccccc2)C(=O)C1=O` (stereo unspecified), the inhibition entry in the data set with Rattus norvegicus [1] was “Active”. In data set [2], this compound displayed a pKa of 5.58.

On to `COc1ccc(NC(=O)C2CN(c3ccccc3)C(=O)C2=O)cc1` (stereo unspecified), for which, in the data set with Rattus norvegicus [1], the inhibition entry was “Active”.

As for `O=C(Nc1ccc(C(F)(F)F)cc1)C1CN(c2ccccc2)C(=O)C1=O` (stereo unspecified), the inhibition result with Rattus norvegicus [1] was “Active”.

For `CC(=O)Oc1ccccc1C(=O)O` [ASPIRIN], the inhibition in vivo at 100 mg/kg in the data set on Rattus norvegicus [3] turned out to be 50%.

As to `CN1CC(C(=O)Nc2ccc(C(F)(F)F)cc2)C(=O)C1=O` (stereo unspecified), the inhibition entry in the data set with Rattus norvegicus [1] is “Active”.
